Source: patent publication US12600725B2 (Memorial Sloan-Kettering Cancer Center, priority 2013, dated 2026)
Entries after “also recorded” stand apart in the source; their conditions may differ.

Assays:
[1] = system: A673 Ewing sarcoma cells; assay: Apoptosis assessment (Annexin V / 7AAD); format: cell-based
Method: (§1) The disclosure provides evidence that Grp94 inhibitors are efficacious in treating cancer with altered expression of the IGF1R and where the receptor is necessary for pathogenesis and tumor progression.
(§2) Cell cycle and apoptosis assessment. Cell cycle and apoptosis were assessed by flow cytometry after single staining with propidium iodide (PI, BD Pharmingen) or double staining with AnnexinV-FITC (BD Pharmingen) and 7AAD (BD Pharmingen), respectively. Specifically, for cell cycle analysis, cells were washed twice with cold PBS and fixed in 70% ethanol overnight at 4° C. Fixed cells were collected at 1800 rpm for 10 min and stained with PBS containing PI and DNase-free RNase A (Sigma-Aldrich) for 1 h at room temperature in the dark. DNA content was measured by BD LSRII flow cytometer and cell further analyzed using program of cell cycle analysis in FloJo (Ashland, OR). The chicken erythrocyte nuclei singlets (CEN, Biosure) were used as the reference. For apoptosis assessment, live cells were collected, washed twice with cold PBS, resuspended in Binding Buffer and stained with AnnexinV-FITC and 7AAD for 15 min at room temperature in the dark. Signals from FL1 and FL3 channels were collected by MACSQuant analyzer and further analyzed using FloJo. Early apoptosis was defined as AnnexinV+/7AAD−, and late apoptosis was observed as AnnexinV+/7AAD+.

[2] = system: TC71 Ewing sarcoma cells; assay: Apoptosis assessment (Annexin V / 7AAD); format: cell-based
Method: as §1, §2

[3] = system: HER2-overexpressing breast cancer cells; assay: Cell cycle, PARP cleavage, apoptosis and Hsp70 induction in HER2-overexpressing breast cancer cells; format: cell-based
[4] = system: Hsp70 induction in HEK293 cells; assay: Hsp70 induction in HA-TLR9 transfected HEK293 cells; format: cell-based, human; settings: 24 h
Method: Cell fractionation and immunoblotting. Cells were either treated with DMSO (vehicle) or indicated compounds for 24 hr and lysed in RIPA buffer (50 mM Tris-HCl, pH 7.4, 150 mM NaCl, 0.5% sodium deoxycholate and 0.5% NP40) supplemented with cocktail protease inhibitors (Roche) to produce whole cell lysates. Lysates for cytosol and membrane fractions were harvested using ProteoExtract Subcellular Proteome Extraction Kit (Calbiochem) following the manufacturer's instructions. Protein concentrations were determined using BCA kit (Pierce) according to the manufacturer's instructions. The protein lysates ([…]) were electrophoretically resolved by SDS-PAGE, transferred onto nitrocellulose membranes and probed with the indicated primary antibodies against: HER^2 (Zymed, 28004), Hsp70 (Stressgen, SPA-810), Grp94 (Stressgen, SPA-850), Hsp90α (Abcam, Ab2928), Hsp90β (StressMarq, SMC-107B), Grp78 (Cell Signaling, 3183), Raf-1 (Santa Cruz, sc-133), phospho-Raf-1 (Cell Signaling, 9421), MEK1/2 (Cell Signaling, 8727), phospho-MEK1/2 (Cell Signaling, 9154), ERK1/2 (Cell Signaling, 4695), phospho-ERK1/2 (Cell Signaling, 4370), AKT (Cell Signaling, 9272), GM130 (Cell Signaling, 2296), Flotillin 2 (Cell Signaling, 3436), Histone H4 (Cell Signaling, 2592), Histone H1 (Santa Cruz, sc-8030), Caspase 3 (Cell Signaling, 9665), cleaved PARP (Promega, G7341), a-tubulin (Sigma, T5168) and 3-actin (Sigma, A1978). After washing off the excess antibodies, the membranes were incubated with the corresponding horseradish peroxidase (HRP) conjugated secondary antibody. Blots were visualized by autoradiography using the Enhanced Chemiluminescence Detection System (GE Healthcare) according to manufacturer's instructions. […]
TLR^9-trafficking assay (Yang, Y. et al. Heat shock protein gp96 is a master chaperone for toll-like receptors and is important in the innate function of macrophages. Immunity 26, 215-26 (2007)). […] Fluorescence intensity was quantified using MetaMorph Microscopy Automation and Image Analysis Software (Molecular Devices Inc.) and normalized to the cell number.

[5] = system: NCI-N87 cells; assay: Apoptosis assessment (Annexin V / 7AAD); format: cell-based
Excerpt: (§3) Annexin V Apoptosis with 7-AAD has been specifically designed for the identification of apoptotic and necrotic cells. Annexin V (or Annexin A5) is a member of the annexin family of intracellular proteins that binds to phosphatidylserine (PS) in a calcium-dependent manner. PS is normally only found on the intracellular leaflet of the plasma membrane in healthy cells, but during early apoptosis, membrane asymmetry is lost and PS translocates to the external leaflet. Fluorochrome-labeled Annexin V can then be used to specifically target and identify apoptotic cells. Annexin V binding alone cannot differentiate between apoptotic and necrotic cells. To help distinguish between the necrotic and apoptotic cells 7-amino-actinomycin D (7-AAD) is used. Early apoptotic cells will exclude 7-AAD, while late stage apoptotic cells will stain positively, due to the passage of these dyes into the nucleus where they bind to DNA. 7-AAD (7-amino-actinomycin D) has a high DNA binding constant and is efficiently excluded by intact cells. It is useful for DNA analysis and dead cell discrimination during flow cytometric analysis. When excited by 488 laser light, 7-AAD fluorescence is detected in the far red range of the spectrum (650 nm long-pass filter).
as §2

[6] = system: OE19 cells; assay: Apoptosis assessment (Annexin V / 7AAD); format: cell-based
Excerpt: as §3, §2

[7] = system: PANC-1 cells; assay: Apoptosis assessment (Annexin V / 7AAD); format: cell-based
Excerpt: as §3, §2

SMILES: CC(C)NCCCn1c(Sc2cc(Cl)cc(Cl)c2)nc2c(N)ncnc21 [PU-WS13]
- induction of apoptosis [1]: capable of inducing apoptosis
- induction of apoptosis [2]: capable of inducing apoptosis
- accumulation of cells in sub-G1 phase, time first observed post-treatment [3]: 1 to 2 h
- cells exhibiting markers of early- and late-stage apoptosis [3]: substantial increase
- cleavage of PARP [3]: cleavage of PARP
- feed-back heat shock response (Hsp70 induction) [3]: little to no Hsp70 induction
- Hsp70 induction [4]: fails to induce Hsp70
- cells exhibiting markers of early- and late-stage apoptosis [5]: substantial increase
- cells exhibiting markers of early- and late-stage apoptosis [6]: substantial increase
- induction of apoptosis [7]: substantial increase; also recorded: more potent at killing cells through apoptosis
